The results in this text go back to patent US20230286973A1, “PROTEIN SECRETION INHIBITORS” (KEZAR LIFE SCIENCES, priority 2020, published 2023).

For data set [1], the system named is multiple myeloma cell line NCI-H929. The data set can be described thus: H929 Cell Viability Assay. The following applies: Homo sapiens, NCI-H929, 48 h, NCI-H929 cells, Celltiter-Glo. Format: cell-based, human. In a few lines: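 A 48-hour compound treatment of cells in 10% FBS RPMI medium was followed by luciferase-based viability quantification.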
In general terms: ATP-based viability assays read luminescence as a measure of living cells.

The test system of data set [2] is PD1-ss+10aa/Gaussia Luciferase. Kind of data set: Dox-Induced PD1-ss-Gluc Assay. Format: cell-based. The following applies: 24 hr Dox induction, 293FRT/TO cells, read-out: 24 hr Dox Inducible PD1ssGluc 293FRT/TO: Mean IC50. In a few lines:
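Stable Flp-In 293 T-REx cells carried a doxycycline-inducible construct of Gaussia luciferase fused to the PD1 signal sequence plus 10 amino acids. Cells were plated the day before, then treated with compound dilutions in DMSO/media containing doxycycline at 37 °C, 5% CO2.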

Data set [3] has as its system HER3-ss+4aa/Gaussia Luciferase. The data set can be described thus: Dox-Induced Her3-ss-Gluc Assay. Format: cell-based. The following applies: 24 hr Dox induction, 293FRT/TO cells, read-out: 24 hr Dox Inducible Her3(ss + 4)Gluc 293FRT/TO: Mean IC50. In a few lines: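 Doxycycline-inducible HER3 signal sequence+4aa/Gaussia luciferase construct, stably integrated in Flp-In 293 T-REx cells; compound dilutions applied with doxycycline at 37° C., 5% CO2.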

For data set [4], the system named is IL-2-FL/Gaussia Luciferase. The data set can be described thus: Dox Induced IL2-FL-Gluc Assay. The format is cell-based. The following applies: for IC50: 24 hr Dox induction, 293FRT/TO cells, read-out: 24 hr Dox Inducible IL2FLGluc 293FRT/TO: Mean IC50; for 24 hr Dox Inducible IL2FLGluc 293FRT/TO: IL2/PD1: ratio of IL2FLGluc IC50 to PD1ssGluc IC50. In a few lines:
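A hygromycin- and blasticidin-resistant 293 T-REx clone carrying inducible IL-2–Gaussia luciferase (full-length IL-2, residues 1-153) serves as the cell system. After overnight plating, the cells get test compounds together with doxycycline in DMSO/media and are incubated at 37° C, 5% CO2.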

Data set [5] can be described thus: Liver Microsome Stability Assay (monkey). The following applies: monkey liver microsomes, with NADPH, 1.0 uM compound.
Experimental: (§1) Stability of a compound was assessed in the presence of liver microsomes from various sources—mouse, rat, monkey and human liver microsomes. 1.0 uM compound, 0.4% DMSO in 0.1 M Potassium Phosphate with 1.0 mg/mL liver microsomes, were incubated at 37° C. with or without 1 mM NADPH. The samples were quenched at 0, and 30 minutes.
Data set [6] is described as follows: Liver Microsome Stability Assay (mouse). The following applies: mouse liver microsomes, with NADPH, 1.0 uM compound.
Experimental: as §1
The subject of data set [7] is TNFα-FL/Gaussia Luciferase. Kind of data set: Dox Induced TNFα-FL-Gluc Assay. The format is cell-based. The following applies: for IC50: 24 hr Dox induction, 293FRT/TO cells, read-out: 24 hr Dox Inducible TNFaFLGluc 293FRT/TO: Mean IC50; for 24 hr Dox Inducible TNFaFLGluc 293FRT/TO: TNF/PD1: ratio of TNFaFLGluc IC50 to PD1ssGluc IC50. In a few lines: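 Hygromycin/blasticidin-selected Flp-In 293 T-REx cells, TNFα-FL/Gaussia luciferase fusion under T-REx control; overnight plating, then compound in DMSO/media with doxycycline at 37 °C, 5% CO2; stereo-undefined structures tested as mixtures.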

The nature of data set [8]: Liver Microsome Stability Assay (rat). The following applies: rat liver microsomes, with NADPH, 1.0 uM compound. (In general: Liver microsomes are a subcellular fraction often used to study metabolism.)
Experimental: as §1
Data set [9] concerns multiple myeloma cell line U266B1. Kind of data set: U266 Cell Viability Assay. The format is cell-based, human. The following applies: Homo sapiens, U-266, 48 h, U266B1 cells, Celltiter-Glo. In a few lines: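 After growth in serum-supplemented RPMI 1640, cells received serially diluted compound in DMSO/media and were kept 48 hours before a CellTiter-Glo luminescence readout.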

Data set [10] in a line: Liver Microsome Stability Assay (human). The following applies: human liver microsomes, with NADPH, 1.0 uM compound.
Experimental: as §1
Where [11] appears, read: '<=>' given where both are I.A.

Like-named read-outs stand apart in the source and are kept apart here.

Turning to `CC(=O)N1CCCC(c2ccc(N3CCC[C@@H]3c3csc(NC(=O)c4cccn4Cc4ccncc4)n3)cc2)C1` (stereo partly drawn) [Compound A63, N-(4-((2R)-1-(4-(1-acetylpiperidin-3-yl)phenyl)pyrrolidin-2-yl)thiazol-2-yl)-1-(pyridin-4-ylmethyl)-1H-pyrrole-2-carboxamide], the concentration for a half-maximal effect (EC50) in [1] is 1780 nM; in data set [9], over 25000 nM. Also, the IC50 in [2] was 80 nM; in data set [3] it was 130 nM; in data set [4], 149 nM; in data set [7] it was 1060 nM. In data set [4], the “24 hr Dox Inducible IL2FLGluc 293FRT/TO: IL2/PD1” value was found to be 1.9. Besides, in [5], the “Liver Microsome Stability (Multiple Species): Monkey - % Remaining after 30 min w/NADPH” value is reported as 1.18%. Moreover, in [6], the “Liver Microsome Stability (Multiple Species): Mouse - % Remaining after 30 min w/NADPH” value is on record as 3.64%. Besides, in data set [7], the “24 hr Dox Inducible TNFaFLGluc 293FRT/TO: TNF/PD1” value was found to be 13.2. The “Liver Microsome Stability (Multiple Species): Rat - % Remaining after 30 min w/NADPH” value in [8] stood at 6.07%. In addition, the “Liver Microsome Stability (Multiple Species): Human - % Remaining after 30 min w/NADPH” value in data set [10] was found to be 2.22%.
For the molecule `CC(=O)Nc1ccc(N2CCC[C@@H]2c2csc(NC(=O)c3cccn3CC3CCOCC3)n2)cc1` [Compound C107, (R)-N-(4-(1-(4-acetamidophenyl)pyrrolidin-2-yl)thiazol-2-yl)-1-((tetrahydro-2H-pyran-4-yl)methyl)-1H-pyrrole-2-carboxamide], the figures for the EC50 in data set [1] and in [9] were 2160 nM and over 25000 nM, respectively. For the same molecule, the IC50 was determined as 32.2 nM in data set [2] (mean), 56.2 nM in data set [3] (mean), 87.1 nM in data set [4] (mean) and 793 nM in data set [7] (mean). Moreover, the “24 hr Dox Inducible IL2FLGluc 293FRT/TO: IL2/PD1” value in [4] (setting [11]) is 2.7. Further, the “Liver Microsome Stability (Multiple Species): Monkey - % Remaining after 30 min w/NADPH” value in data set [5] was 5.47%. The “Liver Microsome Stability (Multiple Species): Mouse - % Remaining after 30 min w/NADPH” value in data set [6] was determined as 16.4%. For the same molecule, the “24 hr Dox Inducible TNFaFLGluc 293FRT/TO: TNF/PD1” value in data set [7] (setting [11]) was determined as 24.6. The “Liver Microsome Stability (Multiple Species): Rat - % Remaining after 30 min w/NADPH” value in data set [8] worked out at 18.2%. Besides, in [10], the “Liver Microsome Stability (Multiple Species): Human - % Remaining after 30 min w/NADPH” value is recorded as 23.7%.
For the molecule `O=C(Nc1nc([C@H]2CCCN2c2ccc(CO)cc2)cs1)c1cccn1Cc1ccncc1` [Compound A57, (R)-N-(4-(1-(4-(hydroxymethyl)phenyl)pyrrolidin-2-yl)thiazol-2-yl)-1-(pyridin-4-ylmethyl)-1H-pyrrole-2-carboxamide], the values for the EC50 in data set [1] and in data set [9] were 500 nM and over 25000 nM, respectively. The IC50 in data set [2] was 17.7 nM; in data set [3], 38.3 nM; in data set [4], 45.1 nM; in data set [7] it was 287 nM. The “24 hr Dox Inducible IL2FLGluc 293FRT/TO: IL2/PD1” value in data set [4] was found to be 2.5. Also, the “Liver Microsome Stability (Multiple Species): Monkey - % Remaining after 30 min w/NADPH” value in data set [5] is given as 49.5%. Moreover, the “Liver Microsome Stability (Multiple Species): Mouse - % Remaining after 30 min w/NADPH” value in data set [6] was 6.1%. In addition, the “24 hr Dox Inducible TNFaFLGluc 293FRT/TO: TNF/PD1” value in [7] came to 16.2. The “Liver Microsome Stability (Multiple Species): Rat - % Remaining after 30 min w/NADPH” value in data set [8] is on record as 6.28%. For the same molecule, the “Liver Microsome Stability (Multiple Species): Human - % Remaining after 30 min w/NADPH” value in data set [10] is 26.6%.
For `NC(=O)Nc1ccc(N2CCC[C@@H]2c2csc(NC(=O)c3cccn3Cc3ccnc(F)c3)n2)cc1` [Compound A123, (R)-1-((2-fluoropyridin-4-yl)methyl)-N-(4-(1-(4-ureidophenyl)pyrrolidin-2-yl)thiazol-2-yl)-1H-pyrrole-2-carboxamide], the EC50 in data set [1] was 289 nM; in [9], over 25000 nM. The IC50 was 8.21 nM in [2], 18.1 nM in [3], 24.3 nM in data set [4] and 143 nM in [7]. In data set [4], the “24 hr Dox Inducible IL2FLGluc 293FRT/TO: IL2/PD1” value is on record as 3. Also, the “Liver Microsome Stability (Multiple Species): Monkey - % Remaining after 30 min w/NADPH” value in data set [5] is 31.6%. Moreover, the “Liver Microsome Stability (Multiple Species): Mouse - % Remaining after 30 min w/NADPH” value in data set [6] came out at 23.3%. In addition, in [7], the “24 hr Dox Inducible TNFaFLGluc 293FRT/TO: TNF/PD1” value was determined as 17.4. Also, the “Liver Microsome Stability (Multiple Species): Rat - % Remaining after 30 min w/NADPH” value in [8] is 44.7%. The “Liver Microsome Stability (Multiple Species): Human - % Remaining after 30 min w/NADPH” value in data set [10] is listed as 49.3%.
On to `O=C(Nc1nc([C@@H]2CCCN2c2ccc(C(F)(F)F)cc2)cs1)c1cccn1Cc1ccnc(F)c1` [Compound A142, (S)-1-((2-fluoropyridin-4-yl)methyl)-N-(4-(1-(4-(trifluoromethyl)phenyl)pyrrolidin-2-yl)thiazol-2-yl)-1H-pyrrole-2-carboxamide], for which the concentration for a half-maximal effect (EC50) in [1] was 16300 nM; in data set [9], over 25000 nM. Moreover, the IC50 came out at 323 nM in [2], 660 nM in data set [3], 963 nM in data set [4] and 6870 nM in [7]. Moreover, the “24 hr Dox Inducible IL2FLGluc 293FRT/TO: IL2/PD1” value in [4] was 3. In addition, the “Liver Microsome Stability (Multiple Species): Monkey - % Remaining after 30 min w/NADPH” value in data set [5] turned out to be 29.6%. Further, the “Liver Microsome Stability (Multiple Species): Mouse - % Remaining after 30 min w/NADPH” value in [6] is recorded as 60.5%. The “24 hr Dox Inducible TNFaFLGluc 293FRT/TO: TNF/PD1” value in data set [7] is given as 21.3. For the same molecule, in data set [8], the “Liver Microsome Stability (Multiple Species): Rat - % Remaining after 30 min w/NADPH” value amounted to 59.4%. Also, the “Liver Microsome Stability (Multiple Species): Human - % Remaining after 30 min w/NADPH” value in data set [10] was determined as 20.9%.
On to `O=C1NC(/C=C/c2csc(NC(=O)c3cccn3Cc3ccncc3)n2)CO1` (stereo not drawn) [Compound B12], for which the EC50 in data set [1] and in data set [9] was over 25000 nM each time. Moreover, the IC50 in data set [2], in data set [3], in [4] and in data set [7] was over 25000 nM throughout. Further, the “24 hr Dox Inducible IL2FLGluc 293FRT/TO: IL2/PD1” value in data set [4] was 1. The “Liver Microsome Stability (Multiple Species): Monkey - % Remaining after 30 min w/NADPH” value in [5] was 4.16%. For the same molecule, the “Liver Microsome Stability (Multiple Species): Mouse - % Remaining after 30 min w/NADPH” value in [6] is 1.41%. Moreover, in [7], the “24 hr Dox Inducible TNFaFLGluc 293FRT/TO: TNF/PD1” value is given as “<=>1.00”. In addition, the “Liver Microsome Stability (Multiple Species): Rat - % Remaining after 30 min w/NADPH” value in data set [8] was determined as 11%. The “Liver Microsome Stability (Multiple Species): Human - % Remaining after 30 min w/NADPH” value in data set [10] came to 3.28%.
Take `CC(=O)N1CCC(Oc2cc(F)c(N3CCC[C@@H]3c3csc(NC(=O)c4cccn4Cc4ccnc(F)c4)n3)c(F)c2)CC1` [Compound A105, (R)-N-(4-(1-(4-((1-acetylpiperidin-4-yl)oxy)-2,6-difluorophenyl)pyrrolidin-2-yl)thiazol-2-yl)-1-((2-fluoropyridin-4-yl)methyl)-1H-pyrrole-2-carboxamide]: the values for the EC50 in data set [1] and in [9] were 1030 nM and over 25000 nM, respectively. The IC50 turned out to be 53.6 nM in data set [2], 91.7 nM in [3], 65.8 nM in data set [4] and 524 nM in data set [7]. Also, in data set [4], the “24 hr Dox Inducible IL2FLGluc 293FRT/TO: IL2/PD1” value is 1.2. In addition, in [5], the “Liver Microsome Stability (Multiple Species): Monkey - % Remaining after 30 min w/NADPH” value was 0.98%. The “Liver Microsome Stability (Multiple Species): Mouse - % Remaining after 30 min w/NADPH” value in data set [6] came to 1.29%. Besides, the “24 hr Dox Inducible TNFaFLGluc 293FRT/TO: TNF/PD1” value in [7] is 9.81. Moreover, the “Liver Microsome Stability (Multiple Species): Rat - % Remaining after 30 min w/NADPH” value in data set [8] is recorded as 16.9%. In addition, the “Liver Microsome Stability (Multiple Species): Human - % Remaining after 30 min w/NADPH” value in [10] came to 0.87%.

Broadly, the EC50 is the midpoint of the concentration-response curve.
